In patent publication US20050059610A1 (priority 2003, published 2005):
Entries after “also recorded” stand apart in the source; their conditions may differ.

What was measured:
[1] = system: peripheral blood mononuclear cells; assay: Glutamine-treated peripheral blood mononuclear cells; format: cell-based
[2] = system: endotoxin-induced sepsis; assay: Lethal endotoxemia: survival, HSP expression, cytokine release; format: in vivo, rat; details: GLN concurrently with lethal doses of endotoxin
Method: Evaluation of pro-inflammatory cytokine release was also assessed following endotoxemia.

[3] = system: critically ill patients; assay: Clinical outcomes in critically ill patients, glutamine vs control; format: in vivo, human
[4] = in vivo; cited from earlier work
[5] = system: HSP 72 and 27; assay: HSP expression in hearts of LPS-injured rats (Western blot); format: in vivo, rat; details: 0.75 g/kg GLN with 5 mg/kg LPS; six hours; vs LR control
Method: (§1) GLN enhances heat shock protein expression in the unstressed and stressed myocardium. […] The increase was also observed for HSP 27 (another of the protective heat shock proteins) wherein the induction occurred as early as 4-6 hours and persisted for up to 48-72 hours.
Tissues were harvested six hours post-LPS injury and analyzed for HSP 72 expression via Western blot. Each lane represents protein extracts from a separate animal. Relative densitometry are expressed as means ±SE. *−p<0.0005, compared with LR resuscitation alone assessed by Students t test.

[6] = system: infection in patients following bone marrow transplantation; details: parenteral nutritional program supplemented with glutamine (Calder and Yapoob 1999); cited from earlier work
[7] = system: HSP 72; assay: HSP expression in heart and lung tissue of unstressed rats (Western blot); format: in vivo, rat
Method: as §1
Tissues were then harvested four hours post-GLN administration, and HSP 72 expressions were analyzed by Western blot. The image shown is representative of those obtained in four different experiments. The graph represents a percent increase in HSP 72 over control. […] (*p<0.001, **p<0.01, ***p<0.05 compared to control by ANOVA.)

[8] = system: experimental SIRS (CLP); assay: Serum HSP72 (ELISA) and survival after CLP (experimental SIRS); format: in vivo, Sprague-Dawley rats
[9] = non-pancreatic diagnoses, n = 7

SMILES: NC(=O)CC[C@H](N)C(=O)O [GLN, Glutamine]
- heat shock protein expression [1]: increase
- tumor-necrosis alpha release [1]: significant attenuation
- HSP 70 and 23 following lethal endotoxemia [2]: enhanced
- mortality following lethal endotoxemia [2]: reduced mortality
- ICU days ([3]; all diagnoses, n = 15): 15.73 ± 16.18 days
- Length of stay ([3]; all diagnoses, n = 15): 29.73 ± 14.46 days
- Maximum Total Bilirubin (units??) ([3]; all diagnoses, n = 15): 1.23 ± 0.67
- Maximum Total Creatinine (units??) ([3]; all diagnoses, n = 15): 1.26 ± 0.89
- Number of bacterial infections ([3]; all diagnoses, n = 15): 0.20 ± 0.41
- Number of infections ([3]; all diagnoses, n = 15): 1.87 ± 2.59
- One or more bacterial infections (%) ([3]; all diagnoses, n = 15): 20.0%
- One or more infections (%) ([3]; all diagnoses, n = 15): 60.0%
- Ventilator days ([3]; all diagnoses, n = 15): 12.07 ± 15.25 days
- ICU days [3, 9]: 16.71 ± 7.65 days
- Length of stay [3, 9]: 25.29 ± 6.18 days
- Maximum Total Bilirubin (units??) [3, 9]: 1.70 ± 0.70
- Maximum Total Creatinine (units??) [3, 9]: 1.80 ± 1.07
- Number of bacterial infections [3, 9]: 0.0 ± 0.0
- Number of infections [3, 9]: 1.43 ± 1.40
- One or more infections (%) [3, 9]: 57.1%
- One ore more bacterial infection (%) [3, 9]: 0%
- Ventilator days [3, 9]: 12.86 ± 9.03 days
- half-life [4]: 6 h
- HSP 72 and 27 expression in heart (western blot) [5]: markedly enhanced
- level of infection [6]: lower level of infection
- HSP 27 induction, earliest occurrence ([7]; unstressed rat heart): 4 to 6 h
- HSP 27 induction, persistence up to ([7]; unstressed rat heart): 48 to 72 h
- HSP 70 and HSP 25 in heart and lung tissue ([7]; unstressed rats): enhance
- HSP 72 expression in heart and lung tissue vs control (densitometry) ([7]; unstressed rats, GLN 0.15, 0.45, 0.75 g/kg over 12-15 minutes, tissue four hours post-GLN): significantly enhanced; also recorded: significantly increased
- survival following experimental SIRS ([8]; 5 days, BSS 18%): 61%
- sHSP72 vs. BSS (ELISA) ([8]; GLN (given as ALA-GLN) 0.75 g/Kg 1 hour post-CLP, 6 hours post-CLP): significantly enhanced
